The record followed here is patent US4358441A, “Nicotinic derivatives of glucosamine and related pharmaceutical compositions” (Laboratorio Guidotti & C. S.p.A., priority 1980, dated 1982).

Data set [1] deals with plasma levels of free glycerol. Description: Effect of oral administration on plasma levels of free glycerol in the empty rat. The class given is in vivo, rat (COBS CD (SD) BR male). To be noted: for Percent variations of plasma free glycerol with respect to the controls: empty rat.
The test system of data set [2] is plasma levels of triglycerides. Description: Effect of oral administration on plasma levels of triglycerides in the empty rat. The conditions noted are these: for Percent variations of plasma triglycerides with respect to the controls / Percent variations of plasma triglycerides with respect to the control: empty rat; for Time within which the effect on triglycerides disappears: rat; for Percent variations of plasma triglycerides with respect to the control: Table 5, 100 mg/kg oral referred to nicotinic acid. The class given is in vivo, rat (COBS CD (SD) BR male).

The test system of data set [3] is plasma levels of cholesterol. Description: Effect of oral administration on plasma levels of cholesterol in the empty rat. To be noted: for Percent variations of plasma cholesterol with respect to the controls: 100 mg/kg oral referred to nicotinic acid; for Percent variations of plasma cholesterol with respect to the controls / Percent variations of plasma cholesterol with respect to the control: empty rat; for Percent variations of plasma cholesterol with respect to the control: Table 5, 100 mg/kg oral referred to nicotinic acid. The class given is in vivo, rat (COBS CD (SD) BR male).

Another data set concerns plasma levels of FFA. Description: Effect of oral administration on plasma levels of FFA in the empty rat. To be noted: for Percent variations of plasma FFA with respect to the controls / Percent variations of plasma FFA with respect to the control: empty rat; for Percent variations of plasma FFA with respect to the control: Table 5, 100 mg/kg oral referred to nicotinic acid.

A further data set in a line: Solubility. The data set is classed as physicochemical.
[4] abbreviates: 30 mg/kg oral referred to nicotinic acid, 1 h.
Setting [5] is: 30 mg/kg oral referred to nicotinic acid, 2 h.
[6] abbreviates: 30 mg/kg oral referred to nicotinic acid, 4 h.
Setting [7] is: 30 mg/kg oral referred to nicotinic acid, 6 h.
Setting [8] is: 100 mg/kg oral referred to nicotinic acid, 2 h.
[9] abbreviates: 100 mg/kg oral referred to nicotinic acid, 4 h.
The mark [10] stands for this setting: 100 mg/kg oral referred to nicotinic acid, 6 h.
Setting [11] is: 100 mg/kg oral referred to nicotinic acid, 8 h.
[12] abbreviates: 100 mg/kg oral referred to nicotinic acid, 10 h.
The mark [13] stands for this setting: 100 mg/kg oral referred to nicotinic acid, 16 h.
[14] abbreviates: 100 mg/kg oral referred to nicotinic acid, 24 h.

In the case of `O=C(OC[C@H](OC(=O)c1cccnc1)[C@@H](OC(=O)c1cccnc1)[C@H](OC(=O)c1cccnc1)[C@@H](COC(=O)c1cccnc1)OC(=O)c1cccnc1)c1cccnc1` [SORBINICATE, D-glucitol hexanicotinate], the “Percent variations of plasma free glycerol with respect to the controls” value in data set [1] (setting [4]) is listed as -59%; in data set [1] (setting [5]), -27%; in data set [1] (setting [6]), “+2%”; in data set [1] (setting [7]) it was -7%; in data set [1] (setting [8]), -70%; in data set [1] (setting [9]), -3%. Also, the “Percent variations of plasma free glycerol with respect to the controls” value is recorded as “+3%” in data set [1] (setting [10]); “+20%” in data set [1] (setting [11]); “+8%” in data set [1] (setting [12]); -1% in data set [1] (setting [13]); -1% in data set [1] (setting [14]). Besides, the “Activity on free glycerol” value in data set [1] (30 mg/kg oral, rat) is reported as “active only after 1 hour”. Besides, in data set [1] (100 mg/kg oral, rat), the “Time within which the effect on free glycerol disappears” value is listed as “within the fourth hour”. The “Percent variations of plasma triglycerides with respect to the controls” value is recorded as -42% in data set [2] (setting [4]); -16% in data set [2] (setting [5]); “+6%” in data set [2] (setting [6]); -3% in data set [2] (setting [7]); -61% in data set [2] (setting [8]); -46% in data set [2] (setting [9]). Also, the “Percent variations of plasma triglycerides with respect to the controls” value is -55% in data set [2] (setting [10]); -5% in data set [2] (setting [11]); “+9%” in data set [2] (setting [12]); -3% in data set [2] (setting [13]); -25% in data set [2] (setting [14]). For the same compound, the “Time within which the effect on triglycerides disappears” value in data set [2] (30 mg/kg oral) is no more than 2 h; in data set [2] (100 mg/kg oral), “within the eighth hour”. Also, the “Percent variations of plasma cholesterol with respect to the controls” value in data set [3] (4 h) is -14%; in data set [3] (6 h) it was -15%; in data set [3] (8 h), -7%; in data set [3] (10 h), -15%; in data set [3] (16 h), -13%; in data set [3] (24 h) it was -9%. In addition, in data set [3] (100 mg/kg oral, rat), the Lowering of cholesterolemy result is given as “at the tenth hour only”. The “Percent variations of plasma FFA with respect to the controls” value in the data set on plasma levels of FFA (setting [4]) was -56%; with plasma levels of FFA (setting [5]) it was -14%; in the data set with plasma levels of FFA (setting [6]) it was “+13%”; in the data set on plasma levels of FFA (setting [7]), -9%; in the data set with plasma levels of FFA (setting [8]), -72%; in the data set on plasma levels of FFA (setting [9]), -1%. Also, the “Percent variations of plasma FFA with respect to the controls” value is on record as “+6%” in the data set on plasma levels of FFA (setting [10]); “+4%” in the data set on plasma levels of FFA (setting [11]); -5% in the data set with plasma levels of FFA (setting [12]); “+6%” with plasma levels of FFA (setting [13]); “+2%” in the data set on plasma levels of FFA (setting [14]). Moreover, the “Time within which the effect on FFA disappears” value in the data set on plasma levels of FFA (100 mg/kg oral, rat) is no more than 4 h.
As for `N[C@H]1C(OC(=O)c2cccnc2)O[C@H](COC(=O)c2cccnc2)[C@@H](OC(=O)c2cccnc2)[C@@H]1OC(=O)c1cccnc1` (stereo partly drawn) [glucosamine tetranicotinate, Glucosamine tetranicotinate], the “Percent variations of plasma triglycerides with respect to the control” value in data set [2] (2 h) is listed as -54%; in data set [2] (4 h), -53%; in data set [2] (8 h), -82%. The “Percent variations of plasma cholesterol with respect to the control” value was -16% in data set [3] (4 h), -26% in data set [3] (8 h) and -59% in data set [3] (24 h). In the data set “Solubility”, the Solubility entry was “soluble in the common organic solvents and in acid solutions”. Besides, the “Percent variations of plasma FFA with respect to the control” value was -70% in the data set with plasma levels of FFA (2 h), -48% in the data set on plasma levels of FFA (4 h) and -65% with plasma levels of FFA (8 h).
Consider `O=C(N[C@H]1[C@@H](OC(=O)c2cccnc2)O[C@H](COC(=O)c2cccnc2)[C@@H](OC(=O)c2cccnc2)[C@@H]1OC(=O)c1cccnc1)c1cccnc1` [α, α-N-nicotinoyl-glucosamine tetranicotinate], for which the “Percent variations of plasma triglycerides with respect to the control” value in data set [2] (2 h) was -56%; in data set [2] (4 h) it was -68%; in data set [2] (8 h), -47%. In addition, the “Percent variations of plasma cholesterol with respect to the control” value was -4% in data set [3] (4 h), -12% in data set [3] (8 h) and -44% in data set [3] (24 h). For the same compound, in “Solubility”, the Solubility result is “soluble in the common non-polar organic solvents”. Besides, the “Percent variations of plasma FFA with respect to the control” value is -64% in the data set on plasma levels of FFA (2 h), -13% in the data set on plasma levels of FFA (4 h) and -7% in the data set with plasma levels of FFA (8 h).
On to `O=C(N[C@H]1[C@H](OC(=O)c2cccnc2)O[C@H](COC(=O)c2cccnc2)[C@@H](OC(=O)c2cccnc2)[C@@H]1OC(=O)c1cccnc1)c1cccnc1` [β, β-N-nicotinoyl-glucosamine tetranicotinate], for which the “Percent variations of plasma triglycerides with respect to the control” value in data set [2] (2 h) was -53%; in data set [2] (4 h) it was -77%; in data set [2] (8 h), -69%. The “Percent variations of plasma cholesterol with respect to the control” value is listed as -2% in data set [3] (4 h), -17% in data set [3] (8 h) and -43% in data set [3] (24 h). The Solubility entry in “Solubility” was “slightly soluble in acetone, ethanol and chloroform, but soluble in dilute acids”. Also, the “Percent variations of plasma FFA with respect to the control” value is recorded as -67% with plasma levels of FFA (2 h), -30% in the data set with plasma levels of FFA (4 h) and -44% in the data set with plasma levels of FFA (8 h).
